Our source for the MIC and Ki values is paper PMC8745223, “Novel 1,3,5-Triazinyl Aminobenzenesulfonamides Incorporating Aminoalcohol, Aminochalcone and Aminostilbene Structural Motifs as Potent Anti-VRE Agents, and Carbonic Anhydrases I, II, VII, IX, and XII Inhibitors” (International Journal of Molecular Sciences, 2021).

Converted amounts (≈) assume the structure as drawn. Bounds are passed on as bounds.

The test system of assay [1] is T1, Enterococcus faecalis VRE 725 B.
T1 construct: VRE 725B (vanA clinical isolate)
Briefly: organism not typed. Also noted: broth microdilution MIC in BHI, Alamar Blue read-out, 37 °C. To be noted: 24 h. As for the experimental part:
(§1) The inhibition activity against enterococci was evaluated by the microtitration broth method according to the Clinical and Laboratory Standards Institute with some modifications. The compounds were dissolved in DMSO and serially diluted in Brain Hearth Infusion (BHI) to reach concentrations 256–2 µg/mL. […] The experiment was repeated at least three times. All the investigated compounds were tested on their anti-staphylococcal activity against three clinical isolates of methicillin-resistant Staphylococcus aureus (MRSA) and S. aureus ATCC 29213 as the reference and quality control strain. […] All the compounds were tested against Enterococcus faecalis ATCC 29212 as the reference strain and three isolates from American crows of vanA-carrying vancomycin-resistant E. faecalis (VRE), and the activities, expressed as minimum inhibitory concentrations (MICs), are listed in Table 3.

In assay [2] the target is T2, hCA II (Homo sapiens, UniProt P00918).
T2 construct: gene CA2; recombinant
Briefly: stopped-flow CO2 hydration assay. Format: biochemical. Summed up:
(§2)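 A stopped-flow method tracked CO2 hydration by recombinant human carbonic anhydrase for 10–100 s, using 0.2 mM phenol red (557 nm), 20 mM Hepes pH 7.5, 20 mM Na2SO4 and 1.7–17 mM CO2. Before the assay, enzyme and inhibitor (diluted to 0.005 nM in buffer) were preincubated for 15 min at room temperature. Initial rates came from at least six traces after subtraction of uncatalysed rates, and each value is the mean of three or more determinations. Ki was obtained by non-linear least-squares fitting with the Cheng–Prusoff equation.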

Assay [3] can be described thus: stopped-flow CO2 hydration assay. It counts as biochemical, Homo sapiens. To be noted: read-out: KI (nM) ^a / hCA I. Summed up:
as §2

Assay [4] deals with T3, hCA VII (Homo sapiens, UniProt P43166).
T3 construct: gene CA7; recombinant
Briefly: stopped-flow CO2 hydration assay. Format: biochemical. Summed up: as §2

Assay [5] concerns T4, E. faecalis ATCC 29212 (EF).
T4 construct: ATCC 29212
Briefly: microbe, parasite or virus in culture. To be noted: Enterococcus faecalis, ATCC29212, 24 h. Also noted: broth microdilution MIC in BHI, Alamar Blue read-out, 37 °C. As to the method:
(§3) The inhibition activity against enterococci was evaluated by the microtitration broth method according to the Clinical and Laboratory Standards Institute with some modifications. The compounds were dissolved in DMSO and serially diluted in Brain Hearth Infusion (BHI) to reach concentrations 256–2 µg/mL. […] The experiment was repeated at least three times. All the investigated compounds were tested on their anti-staphylococcal activity against three clinical isolates of methicillin-resistant Staphylococcus aureus (MRSA) and S. aureus ATCC 29213 as the reference and quality control strain.

Assay [6] deals with T5, Enterococcus faecalis VRE 342 B.
T5 construct: VRE 342 B (vanA clinical isolate)
Nature of the assay: organism not typed. The arrangement: broth microdilution MIC in BHI, Alamar Blue read-out, 37 °C. To be noted: 24 h. As to the method: as §3

Assay [7] deals with T6, Enterococcus faecalis VRE 368.
T6 construct: VRE 368 (vanA clinical isolate)
Briefly: organism not typed. The arrangement: broth microdilution MIC in BHI, Alamar Blue read-out, 37 °C. To be noted: 24 h. As to the method: as §3

The target in assay [8] is T7, hCA I (Homo sapiens, UniProt P00915).
T7 construct: gene CA1; recombinant
Briefly: stopped-flow CO2 hydration assay. It counts as biochemical. Summed up:
as §2

Assay [9] concerns the target T8, hCA IX (Homo sapiens, UniProt Q16790).
T8 construct: gene CA9; recombinant
Briefly: biochemical. Also noted: stopped-flow CO2 hydration assay, phenol red indicator at 557 nm, 15 min preincubation with inhibitor. As for the experimental part:
(§4) AnSX.18MV-R Applied Photophysics stopped-flow instrument (Applied Photophysics, Leatherhead, UK) has been used for assaying the CA catalyzed CO2 hydration activity. Phenol red (at a concentration of 0.2 mM) has been used as an indicator, working at the absorbance maximum of 557 nm, with 20 mM Hepes (pH 7.5) as a buffer and 20 mM Na2SO4 (for maintaining constant the ionic strength), following the CA-catalyzed CO2 hydration reaction for a period of 10–100 s. The CO2 concentrations ranged from 1.7 to 17 mM for the determination of the kinetic parameters and inhibition constants. For each inhibitor, at least six traces of the initial 5–10% of the reaction were used for determining the initial velocity. The uncatalyzed rates were determined in the same manner and were subtracted from the total observed rates. Stock solutions of the inhibitor (0.1 mM) were prepared in distilled-deionized water, and dilutions up to 0.005 nM were done thereafter with the assay buffer. Inhibitor and enzyme solutions were preincubated together for 15 min at room temperature prior to assay in order to allow for the formation of the E–I complex. The inhibition constants were obtained by non-linear least-squares methods using PRISM 3 and the ChengPrusoff equation, as reported earlier, and represent the mean from at least three different determinations. All CA isoforms were recombinant ones and were prepared as reported earlier. Errors in the range of 5–10% of the reported value (Mean from three different assays, by stopped-flow technique). The presence of aminobenzenesulfonamide structural moiety in the structure of target compounds 1–44 can cause inhibition activity in these compounds against human carbonic anhydrases. The inhibition of physiologically relevant hCA I and hCA II can lead to various undesirable side effects. On the other hand, the inhibition of tumor-associated isoenzymes hCA IX and hCA XII could be a great benefit in tumor treatment. Inhibition of isoenzyme hCA VII, which is presented mostly in the brain, can be a new approach for the treatment of epilepsy or chronic neuropathic pain [42, 43]. Compounds 1–44 were evaluated as potential inhibitors of hCA I, hCA II, hCA VII, hCA IX, and hCA XII. The inhibition activities against individual hCAs were determined by methodology based on stopped-flow assay. For completeness, Table 2 also includes the previously published inhibition activities of compounds 2, 3, 5–12 and 18–19. Values of KIs were compared with clinically used sulfonamides as standards—AAZ (acetazolamide), BRZ (brinzolamide), DCP (dichlorphenamide), DZA (dorzolamide), EZA (ethoxzolamide), MZA (methazolamide), and IND (indisulam; canceled in clinical trials).

Assay [10] concerns the target T2, hCA II. Nature of the assay: biochemical. Also noted: stopped-flow CO2 hydration assay, phenol red indicator at 557 nm, 15 min preincubation with inhibitor. As for the experimental part: as §4
Assay [11] has as its target T7, hCA I. Briefly: biochemical. The arrangement: stopped-flow CO2 hydration assay, phenol red indicator at 557 nm, 15 min preincubation with inhibitor. As to the method:
as §4

Assay [12] deals with T3, hCA VII. Briefly: biochemical. Also noted: stopped-flow CO2 hydration assay, phenol red indicator at 557 nm, 15 min preincubation with inhibitor. As to the method: as §4
Assay [13] deals with T5, Enterococcus faecalis VRE 342 B. Briefly: organism not typed. The arrangement: broth microdilution MIC in BHI, Alamar Blue read-out, 37 °C. To be noted: 24 h. As to the method: as §1
This is another data set of the same source.

Assay [14] relates to T6, Enterococcus faecalis VRE 368. Briefly: organism not typed. The arrangement: broth microdilution MIC in BHI, Alamar Blue read-out, 37 °C. To be noted: 24 h. As for the experimental part: as §1
The source holds these as a separate data set.

The test system of assay [15] is T4, E. faecalis ATCC 29212 (EF). Briefly: microbe, parasite or virus in culture. Also noted: broth microdilution MIC in BHI, Alamar Blue read-out, 37 °C. To be noted: Enterococcus faecalis, ATCC29212, 24 h. As to the method: as §1
This is another data set of the same source.

Assay [16] deals with T7, hCA I. Briefly: biochemical. The arrangement: stopped-flow CO2 hydration assay, phenol red indicator 557 nm, recombinant human CA, 15 min preincubation. As for the experimental part: as §4, with “On the other hand, the inhibition of tumor-associated isoenzymes hCA IX and hCA XII could be a great benefit in tumor treatment. Inhibition of isoenzyme hCA VII, which is presented mostly in the brain, can be a new approach for the treatment of epilepsy or chronic neuropathic pain [42, 43].” left out, “For completeness, Table 2 also includes the previously published inhibition activities of compounds 2, 3, 5–12 and 18–19. Values of KIs were compared with clinically used sulfonamides as standards—AAZ (acetazolamide), BRZ (brinzolamide), DCP (dichlorphenamide), DZA (dorzolamide), EZA (ethoxzolamide), MZA (methazolamide), and IND (indisulam; canceled in clinical trials).” left out

The target in assay [17] is T8, hCA IX. Briefly: stopped-flow CO2 hydration assay. It counts as biochemical. Summed up:
as §2

The next assay deals with T9, hCA XII (Homo sapiens, UniProt O43570).
T9 construct: gene CA12; recombinant
Briefly: stopped-flow CO2 hydration assay. It counts as biochemical. A digest of the protocol:
as §2

T3 sequence (P43166 whole entry): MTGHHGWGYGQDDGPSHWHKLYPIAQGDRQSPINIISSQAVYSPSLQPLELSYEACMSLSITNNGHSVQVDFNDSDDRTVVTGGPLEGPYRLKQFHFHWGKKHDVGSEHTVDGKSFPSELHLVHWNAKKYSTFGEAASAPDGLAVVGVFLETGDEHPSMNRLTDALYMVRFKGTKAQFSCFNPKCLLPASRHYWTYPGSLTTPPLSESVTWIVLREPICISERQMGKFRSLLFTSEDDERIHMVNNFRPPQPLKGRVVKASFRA
T7 sequence (P00915 2-261): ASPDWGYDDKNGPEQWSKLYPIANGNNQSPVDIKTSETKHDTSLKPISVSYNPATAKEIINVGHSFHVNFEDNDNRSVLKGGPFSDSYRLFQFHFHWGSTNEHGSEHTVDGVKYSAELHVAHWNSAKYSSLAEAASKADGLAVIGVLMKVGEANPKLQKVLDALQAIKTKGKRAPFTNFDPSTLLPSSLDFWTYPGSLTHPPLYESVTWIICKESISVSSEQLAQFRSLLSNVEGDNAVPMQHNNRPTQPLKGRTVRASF
T9 sequence (O43570 25-354): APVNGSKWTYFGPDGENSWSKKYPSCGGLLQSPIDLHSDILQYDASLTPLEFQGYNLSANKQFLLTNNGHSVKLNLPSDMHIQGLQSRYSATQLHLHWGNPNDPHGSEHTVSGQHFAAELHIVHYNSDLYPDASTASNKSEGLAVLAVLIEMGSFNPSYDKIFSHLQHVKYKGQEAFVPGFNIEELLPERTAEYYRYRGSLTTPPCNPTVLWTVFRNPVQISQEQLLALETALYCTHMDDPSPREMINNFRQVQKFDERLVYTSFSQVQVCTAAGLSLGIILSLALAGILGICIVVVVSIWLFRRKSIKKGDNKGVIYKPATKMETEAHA

For the compound `NS(=O)(=O)c1ccc(CNc2nc(NCCCO)nc(Nc3ccc(C(=O)/C=C/c4cccc(O)c4)cc3)n2)cc1` [compound 15, 15], the MIC was 111 µM (≈ 63.9 µg/mL) in assay [1], 222 µM (≈ 128 µg/mL) in assay [5], 222 µM (≈ 128 µg/mL) in [6] and 111 µM (≈ 63.9 µg/mL) in assay [7]. For the same compound, the Ki at hCA II [2] is 3020 nM; in assay [3], over 10000 nM; at hCA VII [4], 25.9 nM; at hCA I [8], over 10000 nM.
With `NS(=O)(=O)c1ccc(CCNc2nc(Nc3ccc(O)cc3)nc(Nc3ccc(C(=O)/C=C/c4ccccc4)cc3)n2)cc1` [compound 21, (E)-4-[2-({4-[(4-Cinnamoylphenyl)amino]-6-[(4-hydroxyphenyl)amino]-1,3,5-triazin-2-yl}amino)ethyl]benzenesulfonamide], the MIC in [1], in assay [5], in assay [6] and in assay [7] was 26.3 µM (≈ 16 µg/mL) throughout. The Ki at hCA II [2] is 3160 nM; in assay [3] it was over 10000 nM; at hCA VII [4], 810 nM; at hCA I [8], over 10000 nM.
Regarding `NS(=O)(=O)c1ccc(CCNc2nc(NCC(O)CO)nc(Nc3ccc(C(=O)/C=C/c4ccccc4O)cc3)n2)cc1` (centres unmarked) [compound 23, 23], the MIC amounted to 105 µM (≈ 63.6 µg/mL) in [1], 52.8 µM (≈ 32 µg/mL) in assay [5], 52.8 µM (≈ 32 µg/mL) in assay [6] and 52.8 µM (≈ 32 µg/mL) in [7]. Further, the Ki is 83 nM on hCA II [2], over 10000 nM in [3], 88.7 nM at hCA VII [4] and over 10000 nM on hCA I [8].
Turning to `NS(=O)(=O)c1ccc(CNc2nc(NCC(O)CO)nc(Nc3ccc(C(=O)/C=C/c4ccc(O)cc4)cc3)n2)cc1` (centres unmarked) [compound 28, 28], the Ki on hCA IX [9] amounted to 8460 nM; at hCA II [10] it was 184 nM; on hCA I [11] it was 8220 nM; on hCA VII [12] it was 594 nM. Also, the MIC in assay [13], in assay [1], in [14] and in [15] was over 444 µM throughout.
`NS(=O)(=O)c1ccc(CCNc2nc(NCCc3ccc(S(N)(=O)=O)cc3)nc(Nc3ccc(/C=C/c4cccc(O)c4)cc3)n2)cc1` [compound 41, (E)-4,4’-{[(6-{[4-(3-Hydroxystyryl)phenyl]amino}-1,3,5-triazin-2,4-diyl)bis(azandiyl)]bis(ethan-2,1-diyl)} benzenesulfonamide]: the MIC in [1] was over 372 µM; in assay [5], 372 µM (≈ 255 µg/mL); in assay [6] it was over 372 µM; in [7], over 372 µM. Moreover, the Ki on hCA I [16] was 608 nM; on hCA II [2] it was 41.4 nM; at hCA IX [17] it was 31.1 nM; at hCA XII, 62.2 nM.
Turning to `NS(=O)(=O)c1ccc(CCNc2nc(Nc3ccc(O)cc3)nc(Nc3ccc(/C=C/c4ccc(O)cc4)cc3)n2)cc1` [compound 43, 43], the MIC is over 429 µM in [1], 429 µM (≈ 256 µg/mL) in assay [5], over 429 µM in [6] and over 429 µM in assay [7]. In addition, the Ki at hCA I [16] was 4060 nM; at hCA II [2] it was 4840 nM; on hCA IX [17], 25.7 nM; at hCA XII, 702 nM.
With `NS(=O)(=O)c1ccc(CCNc2nc(NCc3ccc(S(N)(=O)=O)cc3)nc(Nc3ccc(/C=C/c4ccc(O)cc4)cc3)n2)cc1` [compound 44, (E)-4-{2-[(4-{[4-(4-Hydroxystyryl)phenyl]amino}-6-[(4-sulfamoylbenzyl)amino]-1,3,5-triazin-2-yl)amino]ethyl}benzenesulfonamide], the MIC was 380 µM (≈ 256 µg/mL) in [1], 380 µM (≈ 256 µg/mL) in assay [5], 190 µM (≈ 128 µg/mL) in [6] and over 380 µM in assay [7]. The Ki was found to be 859 nM at hCA I [16], 252 nM at hCA II [2], 249 nM at hCA IX [17] and 10 nM on hCA XII.
